A short description of the data set: Apparent intrinsic clearance in human liver microsomes. It counts as ADME, Microsome.
With `CC1CCN(C(=O)CS(C)(=O)=O)CC1N(C)c1ncnc2[nH]ccc12` (centres undefined), the microsomal CLint is 8 µL/min/mg.
Turning to `CC1CCN(C(=O)CC(F)(F)F)CC1N(C)c1ncnc2[nH]ccc12` (centres undefined), the microsomal CLint came to 16 µL/min/mg.
Then `C[C@@H]1CCN(C(=O)CC#N)C[C@@H]1N(C)c1ncnc2[nH]ccc12` [TOFACITINIB], with 10 µL/min/mg; and `CC1CCN(C(=O)C2CCOC2)CC1N(C)c1ncnc2[nH]ccc12` (centres undefined), with 11 µL/min/mg.

The values are drawn from ChEMBL document CHEMBL1795333, “Extraction of tacit knowledge from large ADME data sets via pairwise analysis” (Bioorg Med Chem, 2011).
